Values after ≈ are worked out from the molar mass of the structure shown.
Tests used:
E. coli D22 = assay: microbe, parasite or virus in culture; type: cell-based; conditions: Escherichia coli, D22, read-out: MIC E. coli D22
A. baumannii ATCC 19606 = assay: microbe, parasite or virus in culture; type: cell-based; conditions: Acinetobacter baumannii, ATCC19606, read-out: MIC, A. baumannii ATCC 19606
N. gonorrhoeae WHO G = assay: Liquid broth MIC in Fastidious broth; conditions: Neisseria gonorrhoeae, read-out: Minimum Inhibitory Concentration (MIC), N. gonorrhoeae WHO G
Experimental: Additional antibacterial testing of the series was performed in 8 reference strains of N. gonorrhoeae (ATCC 49226, FA1090, MS 11, WHO G, WHO L, WHO M, WHO K, WHO X, WHO Z, WHO Q, CDC-0197). ATCC 49226, FA1090, MS11, WHO G, WHO L, and WHO M produce wild type or wild-type like PBP2. WHO K, WHO X, WHO Z, WHO Q, and CDC-0197 produce mosaic PBP2. Liquid broth-based assays were used for antibacterial testing of PBP inhibitors in Neisseria gonorrhoeae. Briefly, cryo-preserved bacterial cultures of clinical strains were streaked for isolation on Chocolate Agar (72 g/L (2×) GC Agar Base (BD #228950) and 2% (2×) Hemoglobin was autoclaved at 121° C. for 20 minutes to sterilize. Once cooled to ˜50° C. the 2×GC Agar Base and 2× Hemoglobin solutions are combined and 1% IsoVitaleX Enrichment (BD #211876) was added to the solution). Strains were incubated at 36° C. and 5% CO2 to allow growth of colonies, 24 hours before inoculum preparation. 2-fold serial dilutions of test compounds were conducted in a 96 well plate with a final volume of 75 μL per well at 2-fold the final desired concentration in Fastidious broth (Remel #R07664). For preparation of assay inoculum, a direct suspension was prepared by aseptically swabbing 10-15 colonies from agar plates into culture tubes containing 2 mL of fresh sterile saline. After the dilution plates were set up, direct suspensions were then diluted in a cuvette containing sterile saline and the optical density was measured at 600 nm. Inocula were diluted such that 75 μL of this culture in Fastidious broth results in a starting bacterial concentration of 5×10^5 CFU/mL when added to the dilution plates. The plates were incubated for ˜24 hours at 36° C. and 5% CO2.

[1] = biological target: T1, PBP3 from Escherichia coli (K-12) (Escherichia coli, UniProt P0AD68); assay: Bocillin-FL fluorescence polarization competition binding, E. coli PBP3
T1 construct: made in house
T1 sequence (P0AD68 1-577): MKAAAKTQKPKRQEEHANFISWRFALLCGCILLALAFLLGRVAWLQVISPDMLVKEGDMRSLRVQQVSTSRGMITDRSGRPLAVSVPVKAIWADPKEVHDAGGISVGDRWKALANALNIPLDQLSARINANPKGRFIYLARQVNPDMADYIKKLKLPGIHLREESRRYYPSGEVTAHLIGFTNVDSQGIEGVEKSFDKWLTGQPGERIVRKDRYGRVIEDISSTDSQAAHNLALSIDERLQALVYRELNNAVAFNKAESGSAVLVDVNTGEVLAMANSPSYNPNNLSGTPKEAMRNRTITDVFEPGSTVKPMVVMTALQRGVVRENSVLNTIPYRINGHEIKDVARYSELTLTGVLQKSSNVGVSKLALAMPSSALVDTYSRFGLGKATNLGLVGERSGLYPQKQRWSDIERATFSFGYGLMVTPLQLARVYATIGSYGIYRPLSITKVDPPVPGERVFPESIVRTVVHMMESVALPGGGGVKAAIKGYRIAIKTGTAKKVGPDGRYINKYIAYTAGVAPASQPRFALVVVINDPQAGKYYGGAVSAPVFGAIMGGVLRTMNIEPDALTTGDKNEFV
Excerpt: To determine the ability of boronic acid-based test PBP inhibitors to bind Penicillin Binding Proteins (PBPs), Bocillin-FL (fluorescently-labeled penicillin V; ThermoFisher Scientific) was used in a fluorescence polarization (FP) competition binding assay to assess inhibitor binding to PBP3 from Escherichia coli (K-12), PBP3 from Pseudomonas aeruginosa (PAO1), PBP1a and PBP3 from Acinetobacter baumannii (ATCC 19606), and PBP2 from Neisseria gonorrhoeae (FA19). PBPs were cloned and purified as described previously (E. coli PBP3, King, D. T, et al., ACS Infectious Diseases 2015, 1, 175-184; P. aeruginosa PBP3, Han et. al., PNAS 2010, 107 (51), 22002-22007; A. baumannii PBPs, Penwell et. al., Antimicrob. Agents Chemother. 2015, 59 (3), 1680-1689; N. gonorrhoeae PBP2, Singh et. al., J. Biol. Chem. 2019, 294 (38), 14020-14032). To establish assay conditions for competition binding, enzyme titration/saturation binding experiments were initially performed. Bocillin-FL was prepared at 0.2 μM in a buffer comprised of 50 mM Hepes (pH 8.0), 300 mM NaCl and 10% (v/v) glycerol for reactions with E. coli, P. aeruginosa and N. gonorrhoeae PBPs, and 25 mM Tris (pH 8.0), 200 mM NaCl, 10% (v/v) glycerol and 0.005% (v/v) Tween 20 for reactions with A. baumannii PBPs. Saturation binding was performed by mixing 40 μl of PBP solutions ranging in concentrations from 0-24 μM with 40 μl of the 0.2 μM Bocillin-FL solution, in individual wells of a black 384-well microplate. FP was measured immediately upon mixing (Excitation, 490 nm; Emission, 520 nm; g-factor, 0.96), using a Cytation3 (BioTek) microplate reader and measured continuously for up to 120 minutes. The FP response stabilized after 15 minutes for P. aeruginosa and A. baumannii PBP3, 30 minutes for E. coli PBP3 and A. baumannii PBP1a, and less than 1 minute for N. gonorrhoeae PBP2. […] The competition binding assay (80 μl final volume) was validated using beta-lactams and PBPs at final concentrations of: 1.5 μM for E. coli PBP3; 0.75 μM for P. aeruginosa PBP3; 1 μM for A. baumannii PBP1a; 0.2 μM for A. baumannii PBP3; and 0.25 μM for N. gonorrhoeae PBP2. Bocillin-FL was at 0.1 μM (0.05 μM with A. baumannii PBP1a) and beta-lactam concentrations ranged from 0-1,000 μM. E. coli PBP3 was incubated with increasing concentrations of ampicillin in a black 384-well microplate (Corning) for 30 minutes. P. aeruginosa PBP3 was incubated for 15 minutes with aztreonam, whereas A. baumannii PBP1a and PBP3 were incubated for 15 minutes with meropenem, and then Bocillin-FL was added followed immediately by the FP measurement for up to 60 minutes. […] The beta-lactam potency was reported as the concentration of beta-lactam required to reduce the amount of PBP bound-Bocillin-FL by 50% (EC50). […] The EC50 of aztreonam was determined to be <0.5 μM for P. aeruginosa PBP3. […] Binding assays for boronic acid PBP inhibitors were performed in an identical fashion for the respective PBPs.

K. pneumoniae 848844 = assay: microbe, parasite or virus in culture; type: cell-based; conditions: Klebsiella pneumoniae, 848844, read-out: MIC K. pneumoniae 848844
[2] = system: N. gonorrhoeae ATCC 49226; assay: Liquid broth MIC in Fastidious broth; conditions: Neisseria gonorrhoeae, ATCC49226, read-out: Minimum Inhibitory Concentration (MIC), N. gonorrhoeae ATCC 49226
K. pneumoniae SI-117 = assay: microbe, parasite or virus in culture; type: cell-based; conditions: Klebsiella pneumoniae, SI117, read-out: MIC K. pneumoniae SI-117
N. gonorrhoeae FA1090 = assay: Liquid broth MIC in Fastidious broth; conditions: Neisseria gonorrhoeae, FA1090, read-out: Minimum Inhibitory Concentration (MIC), N. gonorrhoeae FA 1090
N. gonorrhoeae WHO X = assay: Liquid broth MIC in Fastidious broth; conditions: Neisseria gonorrhoeae, read-out: Minimum Inhibitory Concentration (MIC), N. gonorrhoeae WHO X
E. coli AG100 = assay: microbe, parasite or virus in culture; type: cell-based; conditions: Escherichia coli, AG100, read-out: MIC E. coli AG100
P. aeruginosa ATCC 35151 = assay: microbe, parasite or virus in culture; type: cell-based; conditions: Pseudomonas aeruginosa, ATCC35151, read-out: MIC P. aeruginosa ATCC 35151
N. gonorrhoeae CDC-0197 = assay: Liquid broth MIC in Fastidious broth; conditions: Neisseria gonorrhoeae, CDC0197, read-out: Minimum Inhibitory Concentration (MIC), N. gonorrhoeae CDC-0197
N. gonorrhoeae WHO L = assay: Liquid broth MIC in Fastidious broth; conditions: Neisseria gonorrhoeae, read-out: Minimum Inhibitory Concentration (MIC), N. gonorrhoeae WHO L
[3] = system: P. aeruginosa (ΔmexAB-oprM); assay: Broth microdilution MIC in CAMHB; type: cell-based; conditions: Pseudomonas aeruginosa; read-out: MIC P. aeruginosa ΔmexAB-oprM
N. gonorrhoeae WHO M = assay: Liquid broth MIC in Fastidious broth; conditions: Neisseria gonorrhoeae, read-out: Minimum Inhibitory Concentration (MIC), N. gonorrhoeae WHO M
Experimental: Liquid broth-based assays were used for antibacterial testing of PBP inhibitors in Neisseria gonorrhoeae. Briefly, cryo-preserved bacterial cultures of clinical strains were streaked for isolation on Chocolate Agar (72 g/L (2×) GC Agar Base (BD #228950) and 2% (2×) Hemoglobin was autoclaved at 121° C. for 20 minutes to sterilize. Once cooled to ˜50° C. the 2×GC Agar Base and 2× Hemoglobin solutions are combined and 1% IsoVitaleX Enrichment (BD #211876) was added to the solution). Strains were incubated at 36° C. and 5% CO2 to allow growth of colonies, 24 hours before inoculum preparation. 2-fold serial dilutions of test compounds were conducted in a 96 well plate with a final volume of 75 μL per well at 2-fold the final desired concentration in Fastidious broth (Remel #R07664). For preparation of assay inoculum, a direct suspension was prepared by aseptically swabbing 10-15 colonies from agar plates into culture tubes containing 2 mL of fresh sterile saline. After the dilution plates were set up, direct suspensions were then diluted in a cuvette containing sterile saline and the optical density was measured at 600 nm. Inocula were diluted such that 75 μL of this culture in Fastidious broth results in a starting bacterial concentration of 5×10^5 CFU/mL when added to the dilution plates. The plates were incubated for ˜24 hours at 36° C. and 5% CO2.

E. coli AG100A = assay: Broth microdilution MIC in CAMHB; type: cell-based; conditions: Escherichia coli, read-out: MIC E. coli AG100A

| Structure (SMILES) | MIC (E. coli D22) | MIC (A. baumannii ATCC 19606) | MIC (N. gonorrhoeae WHO G) | EC50 [1] | MIC (K. pneumoniae 848844) | MIC [2] | MIC (K. pneumoniae SI-117) | MIC (N. gonorrhoeae FA1090) | MIC (N. gonorrhoeae WHO X) | MIC (E. coli AG100) | MIC (P. aeruginosa ATCC 35151) | MIC (N. gonorrhoeae CDC-0197) | MIC (N. gonorrhoeae WHO L) | MIC [3] | MIC (N. gonorrhoeae WHO M) | MIC (E. coli AG100A) |
| --- | --- | --- | --- | --- | --- | --- | --- | --- | --- | --- | --- | --- | --- | --- | --- | --- |
| Nc1ncc(C(=O)N[C@@H](C(=O)N[C@H]2Cc3cccc(C(=O)O)c3OB2O)c2ccc(P(=O)(O)O)cc2)s1 (racemic) [Example 50, (R)-3-((S)-2-(2-aminothiazole-5-carboxamido)-2-(4-phosphonophenyl)acetamido)-2-hydroxy-3,4-dihydro-2H-benzo[e][1,2]oxaborinine-8-carboxylic acid and (R)-3-((R)-2-(2-aminothiazole-5-carboxamido)-2-(4-phosphonophenyl)acetamido)-2-hydroxy-3,4-dihydro-2H-benzo[e][1,2]oxaborinine-8-carboxylic acid] | 32 to 64 µg/mL (≈ 58.6 to 117 µM) | > 128 µg/mL | 1 to 2 µg/mL (≈ 1.83 to 3.66 µM) | 50 to 250 µM | > 128 µg/mL | 4 to 8 µg/mL (≈ 7.32 to 14.6 µM) | > 128 µg/mL | 1 to 2 µg/mL (≈ 1.83 to 3.66 µM) | 16 to 32 µg/mL (≈ 29.3 to 58.6 µM) | > 128 µg/mL | 2 to 4 µg/mL (≈ 3.66 to 7.32 µM) | 16 to 32 µg/mL (≈ 29.3 to 58.6 µM) | 16 to 32 µg/mL (≈ 29.3 to 58.6 µM) | 32 to 64 µg/mL (≈ 58.6 to 117 µM) | 1 to 2 µg/mL (≈ 1.83 to 3.66 µM) | > 128 µg/mL |
| O=C(O)c1c(F)ccc2c1OB(O)[C@@H](NC(=O)C(NC(=O)N1CCN(Cc3ccc(O)c(O)c3Cl)C(=O)C1=O)c1ccc(P(=O)(O)O)cc1)C2 (stereo partly drawn) [Example 8, (3R)-3-(2-(4-(2-chloro-3,4-dihydroxybenzyl)-2,3-dioxopiperazine-1-carboxamido)-2-(4-phosphonophenyl)acetamido)-7-fluoro-2-hydroxy-3,4-dihydro-2H-benzo[e][1,2]oxaborinine-8-carboxylic acid] | < 1 µg/mL | < 1 µg/mL | < 1 µg/mL | < 10 µM | > 128 µg/mL | < 1 µg/mL | 8 to 16 µg/mL (≈ 10.9 to 21.8 µM) | < 1 µg/mL | 4 to 8 µg/mL (≈ 5.44 to 10.9 µM) |  | < 1 µg/mL | 1 to 2 µg/mL (≈ 1.36 to 2.72 µM) | 4 to 8 µg/mL (≈ 5.44 to 10.9 µM) | < 1 µg/mL | < 1 µg/mL | < 1 µg/mL |
| O=C(O)c1c(F)ccc2c1OB(O)[C@@H](NC(=O)C(NC(=O)N1CCN(Cc3ccc(O)c(O)c3Cl)C(=O)C1=O)c1ccc(P(=O)(O)O)c(F)c1)C2 (stereo partly drawn) [Example 23, (3R)-3-(2-(4-(2-chloro-3,4-dihydroxybenzyl)-2,3-dioxopiperazine-1-carboxamido)-2-(3-fluoro-4-phosphonophenyl)acetamido)-7-fluoro-2-hydroxy-3,4-dihydro-2H-benzo[e][1,2]oxaborinine-8-carboxylic acid] |  |  | < 1 µg/mL | < 10 µM |  | < 1 µg/mL |  | < 1 µg/mL | 1 to 2 µg/mL (≈ 1.33 to 2.66 µM) |  |  | < 1 µg/mL | 4 to 8 µg/mL (≈ 5.31 to 10.6 µM) |  | < 1 µg/mL |  |
| O=C(O)c1cccc2c1OB(O)[C@@H](NC(=O)C(NC(=O)N1CCN(Cc3ccc(O)c(O)c3Cl)C(=O)C1=O)c1ccc(P(=O)(O)O)cc1)C2 (stereo partly drawn) [Example 24, (3R)-3-(2-(4-(2-chloro-3,4-dihydroxybenzyl)-2,3-dioxopiperazine-1-carboxamido)-2-(4-phosphonophenyl)acetamido)-2-hydroxy-3,4-dihydro-2H-benzo[e][1,2]oxaborinine-8-carboxylic acid] |  |  | < 1 µg/mL | < 10 µM |  | < 1 µg/mL |  | < 1 µg/mL | 16 to 32 µg/mL (≈ 22.3 to 44.6 µM) |  |  | 1 to 2 µg/mL (≈ 1.4 to 2.79 µM) | 4 to 8 µg/mL (≈ 5.58 to 11.2 µM) |  | < 1 µg/mL |  |
| O=C(O)c1c(F)ccc2c1OB(O)[C@@H](NC(=O)C(NC(=O)N1CCN(Cc3cc(F)c(O)c(O)c3Cl)C(=O)C1=O)c1ccc(P(=O)(O)O)cc1)C2 (stereo partly drawn) [Example 45, (3R)-3-(2-(4-(2-chloro-5-fluoro-3,4-dihydroxybenzyl)-2,3-dioxopiperazine-1-carboxamido)-2-(4-phosphonophenyl)acetamido)-7-fluoro-2-hydroxy-3,4-dihydro-2H-benzo[e][1,2]oxaborinine-8-carboxylic acid] |  |  | < 1 µg/mL | < 10 µM |  | < 1 µg/mL |  | < 1 µg/mL | 4 to 8 µg/mL (≈ 5.31 to 10.6 µM) |  |  | 1 to 2 µg/mL (≈ 1.33 to 2.66 µM) | 4 to 8 µg/mL (≈ 5.31 to 10.6 µM) |  | < 1 µg/mL |  |
| O=C(O)c1c(F)ccc2c1OB(O)[C@@H](NC(=O)C(NC(=O)N1CCN(Cc3ccc(O)c(O)c3Cl)C1=O)c1ccc(P(=O)(O)O)cc1)C2 (stereo partly drawn) [Example 46, (3R)-3-(2-(3-(2-chloro-3,4-dihydroxybenzyl)-2-oxoimidazolidine-1-carboxamido)-2-(4-phosphonophenyl)acetamido)-7-fluoro-2-hydroxy-3,4-dihydro-2H-benzo[e][1,2]oxaborinine-8-carboxylic acid] |  |  | < 1 µg/mL | < 10 µM |  | < 1 µg/mL |  | < 1 µg/mL | 1 to 2 µg/mL (≈ 1.41 to 2.83 µM) |  |  | < 1 µg/mL | 4 to 8 µg/mL (≈ 5.66 to 11.3 µM) |  | < 1 µg/mL |  |
| O=C(N[C@@H](C(=O)N[C@H]1Cc2cccc(C(=O)O)c2OB1O)c1ccc(P(=O)(O)O)cc1)c1ccc(O)c(O)c1Cl [Example 49, (R)-3-((R)-2-(2-chloro-3,4-dihydroxybenzamido)-2-(4-phosphonophenyl)acetamido)-2-hydroxy-3,4-dihydro-2H-benzo[e][1,2]oxaborinine-8-carboxylic acid] |  |  |  | > 250 µM |  |  |  |  |  |  |  |  |  |  |  |  |
| O=C(NCCN1CCN(C(=O)NC(C(=O)N[C@H]2Cc3ccc(F)c(C(=O)O)c3OB2O)c2ccc(P(=O)(O)O)cc2)C(=O)C1=O)c1ccc(O)c(O)c1Cl (stereo partly drawn) [Example 120, (3R)-3-(2-(4-(2-(2-chloro-3,4-dihydroxybenzamido)ethyl)-2,3-dioxopiperazine-1-carboxamido)-2-(4-phosphonophenyl)acetamido)-7-fluoro-2-hydroxy-3,4-dihydro-2H-benzo[e][1,2]oxaborinine-8-carboxylic acid] |  |  |  | < 10 µM |  |  |  |  |  |  |  |  |  |  |  |  |

— patent publication US20240270762A1, “PENICILLIN-BINDING PROTEIN INHIBITORS” (priority 2021, published 2024)
